# Experimental data as given in patent US5242938A, “Derivatives of virginiamycin M1” (Merck & Co., Inc., priority 1992, dated 1993).
# Where two headings read alike, the source gives them in different places.
# Columns and labels:
# [1] = biological target: T1, CCK-B (guinea pig cortex) (Cavia porcellus, UniProt H0VZC5); experiment: [125I]BHCCK-8 radioligand binding, guinea pig cortical preparation; conditions: read-out: CCK binding inhibition - IC50, [125I]BHCCK
# T1 construct: guinea pig cortical preparations; from tissue; host or cells: guinea pig brain cortex membranes
# T1 sequence (H0VZC5 1-426): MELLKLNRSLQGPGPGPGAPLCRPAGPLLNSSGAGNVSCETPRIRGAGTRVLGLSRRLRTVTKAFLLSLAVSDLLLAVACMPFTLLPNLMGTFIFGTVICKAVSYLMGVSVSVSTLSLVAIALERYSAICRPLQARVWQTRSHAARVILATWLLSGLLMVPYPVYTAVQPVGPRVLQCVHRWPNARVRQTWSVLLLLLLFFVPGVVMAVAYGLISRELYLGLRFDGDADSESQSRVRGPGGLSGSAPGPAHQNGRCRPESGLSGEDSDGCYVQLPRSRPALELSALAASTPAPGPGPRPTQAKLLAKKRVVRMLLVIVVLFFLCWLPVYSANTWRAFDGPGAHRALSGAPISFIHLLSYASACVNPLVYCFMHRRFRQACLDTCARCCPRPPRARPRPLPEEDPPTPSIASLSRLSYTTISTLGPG
# Procedure: (§1) The resulting supernatant was re-spun at 20,000×g for 20 minutes. […] Incubations were for 40 minutes at 4° C. and were terminated by filtration and washing with ice cold 100 mM saline. […] Incubations were for 30 minutes at room temperature and were terminated by filtration over GF/C filters and washing with 100 mM NaCl.
# [2] = biological target: T1, CCK-B (guinea pig cortex); experiment: [3H]L-365,260 CCK-B selective antagonist ligand binding, brain membranes; conditions: for IC50: read-out: CCK binding inhibition - IC50, [3H]L-365,260
# Procedure: as §1
# CCK-A (rat pancreas) [3] = biological target: T2, CCK-A (rat pancreas) (Rattus norvegicus, UniProt P30551); experiment: [125I]BHCCK-8 radioligand binding, rat pancreatic preparation; conditions: read-out: CCK binding inhibition - IC50, [125I]BHCCK
# T2 construct: from tissue; host or cells: rat pancreas
# T2 sequence (P30551 1-444): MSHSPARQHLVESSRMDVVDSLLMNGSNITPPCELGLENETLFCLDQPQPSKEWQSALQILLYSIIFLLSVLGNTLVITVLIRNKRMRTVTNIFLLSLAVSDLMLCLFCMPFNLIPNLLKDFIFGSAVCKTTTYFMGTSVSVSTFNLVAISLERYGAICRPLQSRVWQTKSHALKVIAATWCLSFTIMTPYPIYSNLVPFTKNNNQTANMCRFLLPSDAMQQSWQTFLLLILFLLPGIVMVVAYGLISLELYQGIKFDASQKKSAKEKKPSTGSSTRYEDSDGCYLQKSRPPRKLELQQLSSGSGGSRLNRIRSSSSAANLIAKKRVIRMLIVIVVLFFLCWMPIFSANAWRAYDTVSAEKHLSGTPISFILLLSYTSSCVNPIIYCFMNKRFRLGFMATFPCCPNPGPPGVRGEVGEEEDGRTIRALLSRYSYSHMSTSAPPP
# Procedure: as §1
# CCK-A (rat pancreas) [4] = biological target: T2, CCK-A (rat pancreas); experiment: [3H]L-364,718 CCK-A selective antagonist ligand binding, pancreas; conditions: read-out: CCK binding inhibition - IC50, [3H]L-364,718
# Procedure: as §1
# Bacillus sp. (Mb 633) = experiment: Agar diffusion disc assay, Baci 633; type: cell-based; conditions: @ 20 g/disc
# Procedure: (§2) Cultures employed in evaluating antimicrobial activity included plant pathogens, human and animal opportunistic pathogens and selected laboratory strains having specific-antibiotic sensitivities or chromosomal or R-plasmid-mediated resistances. […] The agar diffusion MIC's were determined using the method described by Barry in Anitbiotics in Laboratory Medicine, 2nd Ed., Ed. V. Lorian, pp. 1-63, William & Wilkins, Baltimore, 1986. Each test compound was dissolved in methanol to a concentration of 1 mg/ml. Serial dilutions of these compounds were also made to determine an agar diffusion MIC. 20 μl of each dilution was pipetted on to 6 mm paper discs, air dried and placed onto the surface of an agar plate seeded with the appropriate bacteria (~10^6 cfu). Seeded agar plates were incubated overnight (~18 hours) at 25° C. Zone sizes were measured to the nearest mm. Each compound was tested in triplicate and the results shown represent the mean.
# [5] = test system: Staphylococcus aureus (Mb 108, ATCC 6538P); experiment: Agar diffusion disc assay, Sta 108; type: cell-based
# Procedure: as §2
# [6] = test system: Bacillus subtilis (Mb 964, ATCC 6633); experiment: Agar diffusion disc assay, Subt 964; type: cell-based
# Procedure: as §2
# [7] = test system: Micrococcus luteus (Mb 1101, ATCC 9341); experiment: Agar diffusion disc assay, Micr 1101; type: cell-based; conditions: for MIC: read-out: Agar Diffusion MIC versus Micrococcus luteus
# Procedure: as §2
# [8] = test system: Staphylococcus aureus (Mb 2983); experiment: Agar diffusion disc assay, Sta 2983; type: cell-based
# Procedure: as §2
# [9] = test system: Corynebacterium pseudodiphtheriticum (Mb 261, ATCC 9742); experiment: Agar diffusion disc assay, Cory 261; type: cell-based; parameters: Inhibition zone diameter, Cory 261: dose or concentration left out as unconfirmed
# Procedure: as §2
# [10] = test system: Streptococcus faecium (Mb 2820); experiment: Agar diffusion disc assay, Str 2820; type: cell-based; parameters: Inhibition zone diameter, Str 2820: dose or concentration left out as unconfirmed
# Procedure: as §2
# [11] = test system: Streptococcus agalactiae (Mb 2875); experiment: Agar diffusion disc assay, Str 2875; type: cell-based
# Procedure: as §2
# [12] = test system: Salmonella gallinarum (Mb 1287); experiment: Agar diffusion disc assay, Salm 1287; type: cell-based
# Procedure: as §2
# [13] = test system: Escherichia coli (Mb 1418); experiment: Agar diffusion disc assay, Coli 1418; type: cell-based; conditions: @ 20 g/disc
# Procedure: as §2
# [14] = test system: Pseudomonas stutzeri (Mb 1231, ATCC 11607); experiment: Agar diffusion disc assay, Pseu 1231; type: cell-based; conditions: @ 20 g/disc
# Procedure: as §2
# [15] = test system: En terobacter aergenes (Mb 835); experiment: Agar diffusion disc assay, Ent 835; type: cell-based
# Procedure: as §2
structure (smiles),measurement,setting,value
"CC1=C\[C@@H](O)CC(O)Cc2nc(co2)C(=O)N2CCC=C2C(=O)O[C@H](C(C)C)[C@H](C)/C=C/C(=O)NC\C=C\1 (single isomer, unassigned) [Example 14A]",IC50,[1],2100 nM
same,"A.R. = agonist ratio = IC50([3H]L365,260)/IC50([125I]CCK)",[2],0.1
same,IC50,[2],140 nM
same,IC50,CCK-A (rat pancreas) [3],> 3000 nM
same,IC50,CCK-A (rat pancreas) [4],> 3000 nM
same,"Inhibition zone diameter, Baci 633",Bacillus sp. (Mb 633),9 mm
same,zone of inhibition at 20 µg/disc,"[5]; Staphylococcus aureus, ATCC6538P, 18 h, read-out: Inhibition zone diameter, Sta 108, @ 20 g/disc",27 mm
same,zone of inhibition at 20 µg/disc,"[6]; Bacillus subtilis, ATCC6633, 18 h, read-out: Inhibition zone diameter, Subt 964",0 mm
same,zone of inhibition at 20 µg/disc,"[7]; Micrococcus luteus, ATCC9341, 18 h, read-out: Inhibition zone diameter, Micr 1101, @ 20 g/disc",35 mm
same,zone of inhibition at 1.25 µg/disc,"[7]; Micrococcus luteus, ATCC9341, 18 h, read-out: Mean of triplicate zone size versus Micrococcus luteus, 1.25 μg/disc, 25° C., ~18 hours",25 mm
same,zone of inhibition at 2.5 µg/disc,"[7]; Micrococcus luteus, ATCC9341, 18 h, read-out: Mean of triplicate zone size versus Micrococcus luteus, 2.50 μg/disc, 25° C., ~18 hours",27 mm
same,zone of inhibition at 5 µg/disc,"[7]; Micrococcus luteus, ATCC9341, 18 h, read-out: Mean of triplicate zone size versus Micrococcus luteus, 5.00 μg/disc, 25° C., ~18 hours",29 mm
same,zone of inhibition at 20 µg/disc,"[7]; Micrococcus luteus, ATCC9341, 18 h, read-out: Mean of triplicate zone size versus Micrococcus luteus, 20.0 μg/disc, 25° C., ~18 hours",33 mm
same,MIC,[7],0.08 µM
same,zone of inhibition at 20 µg/disc,"[8]; Staphylococcus aureus, 18 h, read-out: Inhibition zone diameter, Sta 2983, @ 20 g/disc",22 mm
same,zone of inhibition at 20 µg/disc,"[9]; Corynebacterium pseudodiphtheriticum, ATCC9742, 18 h, read-out: Inhibition zone diameter, Cory 261, @ 20 g/disc",30 mm
same,zone of inhibition at 20 µg/disc,"[10]; Enterococcus faecium, 18 h, read-out: Inhibition zone diameter, Str 2820, @ 20 g/disc",16 mm
same,zone of inhibition at 20 µg/disc,"[11]; Streptococcus agalactiae, 18 h, read-out: Inhibition zone diameter, Str 2875, @ 20 g/disc",30 mm
same,zone of inhibition at 20 µg/disc,"[12]; Salmonella enterica, GALLINARUM, 18 h, read-out: Inhibition zone diameter, Salm 1287",0 mm
same,"Inhibition zone diameter, Coli 1418",[13],8 mm
same,"Inhibition zone diameter, Pseu 1231",[14],15 mm
same,zone of inhibition at 20 µg/disc,"[15]; 18 h, read-out: Inhibition zone diameter, Ent 835",0 mm
"CC1=C\[C@@H](O)CC(O)Cc2nc(co2)C(=O)N2CCC=C2C(=O)O[C@H](C(C)C)[C@H](C)/C=C/C(=O)NC\C=C\1 (single isomer, unassigned) [Example 14B]",IC50,[1],400 nM
same,"A.R. = agonist ratio = IC50([3H]L365,260)/IC50([125I]CCK)",[2],1
same,IC50,[2],530 nM
same,IC50,CCK-A (rat pancreas) [3],> 3000 nM
same,IC50,CCK-A (rat pancreas) [4],> 3000 nM
same,"Inhibition zone diameter, Baci 633",Bacillus sp. (Mb 633),0 mm
same,"Inhibition zone diameter, Sta 108",[5]; @ 20 g/disc,22 mm
same,"Inhibition zone diameter, Subt 964",[6]; @ 20 g/disc,0 mm
same,Mean of triplicate zone size versus Micrococcus luteus,"[7]; 1.25 μg/disc, 25° C., ~18 hours",22 mm
same,Mean of triplicate zone size versus Micrococcus luteus,"[7]; 2.50 μg/disc, 25° C., ~18 hours",25 mm
same,Mean of triplicate zone size versus Micrococcus luteus,"[7]; 5.00 μg/disc, 25° C., ~18 hours",28 mm
same,Mean of triplicate zone size versus Micrococcus luteus,"[7]; 10.0 μg/disc, 25° C., ~18 hours",30 mm
same,Mean of triplicate zone size versus Micrococcus luteus,"[7]; 20.0 μg/disc, 25° C., ~18 hours",32 mm
same,"Inhibition zone diameter, Micr 1101",[7]; @ 20 µg/disc,35 mm
same,MIC,[7],0.24 µM
same,"Inhibition zone diameter, Sta 2983",[8]; @ 20 g/disc,11 mm
same,"Inhibition zone diameter, Cory 261",[9],26 mm
same,"Inhibition zone diameter, Str 2820",[10],15 mm
same,"Inhibition zone diameter, Str 2875",[11]; @ 20 µg/disc,18 mm
same,"Inhibition zone diameter, Salm 1287",[12]; @ 20 g/disc,0 mm
same,"Inhibition zone diameter, Coli 1418",[13],0 mm
same,"Inhibition zone diameter, Pseu 1231",[14],0 mm
same,"Inhibition zone diameter, Ent 835",[15]; @ 20 g/disc,0 mm
